Where two headings read alike, the source gives them in different places.
How the values were obtained:
Type in all cases: biochemical
Cathepsin K [1] = target: T1, Cathepsin K (Homo sapiens, UniProt P43235); test: Preliminary screening of Cathepsin K (Cathepsin K Inhibitor Screening Kit K150-100, Biovision); conditions: relative inhibition rate vs 10 μM FF-FMK control
T1 construct: purchased Biovision K150-100
T1 sequence (P43235 115-329): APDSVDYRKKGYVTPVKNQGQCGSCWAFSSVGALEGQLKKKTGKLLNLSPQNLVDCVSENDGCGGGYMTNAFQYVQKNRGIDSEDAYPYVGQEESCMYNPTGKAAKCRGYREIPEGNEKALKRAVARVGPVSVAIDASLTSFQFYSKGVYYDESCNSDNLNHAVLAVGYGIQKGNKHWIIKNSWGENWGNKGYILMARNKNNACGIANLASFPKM
Protocol: 1. Method for preliminary screening of Cathepsin K:
Preliminary screening of Cathepsin K was performed by using Cathepsin K Inhibitor Screening Kit (Product No. K150-100) from Biovision Company.
1.1.1 Preparation of Cathepsin K enzyme solution: Cathepsin K enzyme (40 μl) and Cathepsin K reagent (80 μl) were added to Cathepsin K buffer (3.88 ml), and were mixed well, to prepare Cathepsin K enzyme solution with a volume of 4 ml, which was placed on ice for further use.
1.1.2 Preparation of a compound solution: different compounds were separately weighed and dissolved in DMSO (methyl sulfoxide), to prepare solutions at a concentration of 30 mM as stock solutions, and for some insoluble compounds, they were prepared into solutions at a concentration of 10 mM as stock solutions; the 30 mM and 10 mM compound stock solutions were diluted to 1 mM and 100 μM DMSO solutions, respectively; 1 mM and 100 μM compound DMSO solutions (2 μl) were separately added to CTSK buffer (18 μl), to prepare compound solutions at a final concentration of 100 μM and 10 μM, respectively, wherein the concentration of DMSO was 10%.
1.1.3 Preparation of Cathepsin K substrate solution: Cathepsin K substrate (160 μl) was added to Cathepsin K buffer (3.44 ml), and mixed homogeneously, to prepare Cathepsin K substrate solution with a volume of 3.6 ml, which was placed on ice for further use.
1.2 Method for screening Cathepsin K inhibitor: Cathepsin K enzyme solution (prepared in Item 1.1.1) was added to a 384-well plate (ProxiPlate-384 Plus, Perkinelmer) at 10 μl/well, and centrifuged at 1000 rpm for 1 min; the compound solution (prepared in Item 1.1.2) was then added at 2 µl/well, and centrifuged at 1000 rpm for 1 min, and every concentration was repeated in two wells; the plate was placed in a 25° C. incubator for 15 min; Cathepsin K substrate solution was then added at 8 μl/well, and centrifuged at 1000 rpm for 1 min; and finally, the fluorescence signal was read in Enspire, wherein the exciting light was at a wavelength of 400 nm, the emitting light was at a wavelength of 505 nm, and continuous reading was performed at 37° C. for 120 min.
1.3 Data analysis: the slope (S) for all the samples was calculated by ΔRFU (RFU2−RFU1) and time ΔT (T2−T1), including negative control (Enzyme Control, EC) and positive control (Inhibitor Control, IC: 10 μM FF-FMK), and the calculation formula was as followed: Relative inhibition rate %=(SEC−SS)/(SEC−SIC)*100.

Cathepsin K [2] = target: T1, Cathepsin K; test: IC50 determination against Cathepsin K (Biovision kit K150-100); conditions: CTSK
Protocol: (§1) 2. Method for determining IC50 of compounds against cathepsin:
IC50 of compounds against Cathepsin K was determined by using Cathepsin K Inhibitor Screening Kit (Product No. K150-100) from Biovision Company;
2.1.1.1 Preparation of Cathepsin K solution: Cathepsin K enzyme (23 μl) and Cathepsin K reagent (46 μl) were added to Cathepsin K buffer (2231 μl), and mixed well, to prepare Cathepsin K enzyme solution with a volume of 2.3 ml, which was placed on ice for further use.
(§2) 2.1.2 Preparation of compound solutions: 30 mM and 10 mM compound stock solutions, and control compounds were gradiently diluted in DMSO at a ratio of 1:3, wherein the maximum dilution fold was 19683; the gradiently diluted compound solution (3 μl) was added to Cathepsin K, B, L, and S buffer (27 μl), respectively, and mixed well, wherein the control compounds (FF-FMK, F-F-FMK, FF-FMK and Z-FF-FMK) were at the concentrations of 66.67, 22.22, 7.41, 2.47, 0.82, 0.27, 0.091, 0.03, 0.01, 0.0034 and 0 μM, respectively, the test compounds were at the concentrations of 1000, 333.3, 111.1, 37, 12.3, 4.1, 1.4, 0.46, 0.15, 0.05 and 0 μM, respectively, and the final concentration of DMSO was 10%.
2.1.3.1 Cathepsin K: Cathepsin K substrate (90 μl) was added to Cathepsin K buffer (1710 μl), and mixed well, to prepare Cathepsin K substrate solution with a volume of 1.8 ml, which was placed on ice for further use.
(§3) Method for screening cathepsin inhibitors: the cathepsin solution (prepared in Item 2.1.1) was added to a 384-well plate (ProxiPlate-384 Plus, Perkinelmer) at 10 μl/well, and centrifuged at 1000 rpm for Imin; the compound solution (prepared in Item 2.1.2) was then added at 2 μl/well, and every concentration was repeated in two wells; the final concentrations of the test compounds were 100, 33.3, 11.1, 3.7, 1.23, 0.41, 0.14, 0.046, 0.015, 0.005 and 0 μM, respectively, wherein the final concentration of DMSO was 1%; after centrifugation at 1000 rpm for 1 min, the plate was put in a 25° C. incubator for 15 min; the cathepsin substrate solution was then added at 8 µl/well, and centrifuged at 1000 rpm for 1 min; and finally, the fluorescence signal was read in Enspire, wherein the exciting light was at a wavelength of 400 nm, the emitting light was at a wavelength of 505 nm, and continuous reading was performed at 37° C. for 120 min.
(§4) Data analysis: the slope (S) for all the samples was calculated by ΔRFU(RFU2−RFU1) and time ΔT(T2−T1), including negative control (Enzyme Control, EC) and positive control (Inhibitor Control, IC: 10 μM (FF-FMK, F-F-FMK, FF-FMK and Z-FF-FMK), and the calculation formula was as followed: Relative inhibition rate %=(SEC−SS)/(SEC−SIC)*100. The IC50 for each compound was obtained by means of fitting by software GraphPad Prism 5.0.

Cathepsin S = target: T2, Cathepsin S (Homo sapiens, UniProt P25774); test: IC50 determination against Cathepsin S (Biovision kit K149-100); conditions: CTSS
T2 construct: purchased Biovision K149-100
T2 sequence (P25774 115-331): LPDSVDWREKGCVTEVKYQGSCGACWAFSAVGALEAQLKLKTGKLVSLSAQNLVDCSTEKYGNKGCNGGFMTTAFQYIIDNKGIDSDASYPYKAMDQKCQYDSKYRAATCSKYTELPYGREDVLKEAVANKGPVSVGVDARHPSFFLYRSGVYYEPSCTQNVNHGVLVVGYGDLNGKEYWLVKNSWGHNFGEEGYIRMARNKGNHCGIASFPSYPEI
Protocol: as §1
IC50 of compounds against Cathepsin S was determined by using Cathepsin S Inhibitor Screening Kit (Product No. K149-100) from Biovision Company.
2.1.1.4 Preparation of Cathepsin S solution: Cathepsin S enzyme (46 μl) was added to Cathepsin S buffer (2254 μl), and mixed well, to prepare Cathepsin S enzyme solution with a volume of 2.3 ml, which was placed on ice for further use.
as §2
2.1.3.4 Cathepsin S: Cathepsin S substrate (90 μl) was added to Cathepsin S buffer (1710 μl), and mixed well, to prepare Cathepsin S substrate solution with a volume of 1.8 ml, which was placed on ice for further use.
as §3, §4

[3] = Exp-1, read-out: IC50 (nM) Exp-1
[4] = Exp-2, read-out: IC50 (nM) Exp-2
[5] = average of Exp-1 and Exp-2, read-out: Ave of IC50

Inhibition % (1 μM) replicate 1 (Cathepsin K [1]; 1 μM compound, replicate 1): 88.44%
Inhibition % (1 μM) replicate 2 (Cathepsin K [1]; 1 μM compound, replicate 2): 92.44%
Inhibition % (10 μM) replicate 1 (Cathepsin K [1]; 10 μM compound, replicate 1): 94.49%
Inhibition % (10 μM) replicate 2 (Cathepsin K [1]; 10 μM compound, replicate 2): 91.36%
IC50 (Cathepsin K [2]; [3]): 252 nM
IC50 (Cathepsin K [2]; [4]): 245 nM
IC50 (Cathepsin K [2]; [5]): 248 nM
IC50 (Cathepsin S; [3]): 3510 nM
IC50 (Cathepsin S; [4]): 3230 nM
IC50 (Cathepsin S; [5]): 3370 nM
SMILES: CCCNC(=O)[C@H]1O[C@@H]1C(=O)N[C@H](C(=O)N1CCC[C@H]1C(=O)O)[C@@H](C)CC [zxy-60, CA-074, reference compound]
